Molecules are shown by their SMILES.

The text below walks through data of PMC8834192 (2022).

The test system of experiment [1] is Z0 (DNA, aptamer) CTACCAGCTTTGAGGCTCGATCCAGCTTATTCAATTATACCAGCTTATTCAATTATACCAGC
Briefly: circular dichroism. The conditions noted are these: Z0Z1 partial duplex; Z1 (S3) displaced; buffer not stated.

Experiment [2] has the same test system. Kind of experiment: UV-Vis absorbance at 260 nm of released strand. The conditions noted are these: room temperature; partially complementary strand Z1 displaced from bead-bound Z0Z1.

As to `C[C@H]1CCCC(=O)CCC/C=C/c2cc(O)cc(O)c2C(=O)O1`, the binding entry in experiment [1] and in experiment [2] was “yes” each time.
